Several values for one entry are separate records, joined by “and”; a condition that tells them apart may be missing. Equal values may be shown once.
Assays:
EZH1 = EZH1 (Homo sapiens, UniProt Q92800); experiment: Radioisotope-based methyltransferase assay (selectivity)
MLL4 [1] = target: MLL4
PRMT7 = PRMT7 (Homo sapiens, UniProt Q9NVM4); experiment: Radioisotope-based methyltransferase assay (selectivity)
[2] = system: H3K9me2 on the β-globin locus; experiment: ChIP-seq for H3K9me2 in HUDEP-2 cells; assay type: cell-based, human; conditions: HUDEP-2, 1 μM, 4 days
Description: A total of 0.5–1 × 10^6 cells were cross-linked with 1% formaldehyde for 10 min at room temperature and the reaction was quenched with 250 mM glycine. Cross-linked cells were then lysed with buffer 1 (15 mM Tris-HCl (pH 7.5), 60 mM KCl, 15 mM NaCl, 5 mM MgCl2, 0.1 mM EGTA, 300 mM sucrose, […], 1 mM phenylmethanesulfonyl fluoride (PMSF), 0.5% NP40) and incubated on ice for 10 min. After centrifugation, the pellet was re-suspended in buffer 2 (15 mM Tris-HCl (pH 7.5), 60 mM KCl, 15 mM NaCl, 5 mM MgCl2, 0.1 mM EGTA, 1.2 M sucrose, […], 1 mM PMSF). After centrifugation, the pellet was then re-suspended in MNase buffer (50 mM Tris-HCl (pH 7.5), 1 mM CaCl2, 4 mM MgCl2, 320 mM sucrose, 1 mM PMSF) and digested with 100 U of micrococcal nuclease (Takara) at 37 °C for 15 min. […] The samples were analyzed by qPCR. […] ChIP-seq analysis were analyzed Cutadapt (V1.9.1) for QC, FastQC (V0.10.1) for QC assessment, Bowtie (V2.1.0) for mapping, strand cross-correlation (SCC) for ChIP quality assessment, MACS2 for peak calling, and R package ChIPpeakAnno for Peak annotated.

PRMT5/MEP50 = PRMT5/MEP50 (Homo sapiens, UniProt O14744); experiment: biochemical
Sequence of PRMT5/MEP50 (O14744 whole entry): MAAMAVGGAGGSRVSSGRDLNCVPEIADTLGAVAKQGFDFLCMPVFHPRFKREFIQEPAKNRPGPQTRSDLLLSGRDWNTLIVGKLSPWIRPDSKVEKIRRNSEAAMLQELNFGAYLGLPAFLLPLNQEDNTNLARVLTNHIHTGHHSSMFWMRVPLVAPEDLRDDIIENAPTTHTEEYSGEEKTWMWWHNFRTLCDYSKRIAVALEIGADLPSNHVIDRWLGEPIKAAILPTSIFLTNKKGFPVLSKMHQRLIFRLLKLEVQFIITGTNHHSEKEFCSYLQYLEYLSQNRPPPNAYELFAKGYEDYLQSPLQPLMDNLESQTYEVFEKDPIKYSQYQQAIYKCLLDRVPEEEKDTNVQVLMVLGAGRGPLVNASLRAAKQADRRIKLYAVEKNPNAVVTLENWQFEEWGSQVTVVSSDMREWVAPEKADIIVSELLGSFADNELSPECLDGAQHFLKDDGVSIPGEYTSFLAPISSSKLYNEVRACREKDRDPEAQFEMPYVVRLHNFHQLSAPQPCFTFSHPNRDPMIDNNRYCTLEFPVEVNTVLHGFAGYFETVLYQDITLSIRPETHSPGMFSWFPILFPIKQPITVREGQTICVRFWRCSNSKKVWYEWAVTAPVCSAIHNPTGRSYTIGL
Sequence of PRMT5/MEP50 (Q9BQA1 whole entry partner): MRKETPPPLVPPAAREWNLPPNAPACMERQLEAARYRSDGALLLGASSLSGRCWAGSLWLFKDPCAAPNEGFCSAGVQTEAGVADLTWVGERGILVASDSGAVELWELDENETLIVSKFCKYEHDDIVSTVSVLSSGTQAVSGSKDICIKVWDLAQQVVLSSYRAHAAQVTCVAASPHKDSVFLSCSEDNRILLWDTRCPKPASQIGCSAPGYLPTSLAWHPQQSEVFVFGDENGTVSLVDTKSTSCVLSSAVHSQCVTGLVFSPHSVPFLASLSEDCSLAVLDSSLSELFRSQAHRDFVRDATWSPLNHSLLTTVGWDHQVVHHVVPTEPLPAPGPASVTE

[3] = system: Salmonella typhimurium TA100; experiment: Ames test, TA100
Description: The Salmonella mutagenicity assay was performed by pre-incubating the test compounds for 20 min with Salmonella typhimurium strains TA98 and TA100, with and without metabolic activation (S9 mixture).
After this time 2 mL of top agar was added to the mixture and poured on to a plate containing minimum agar. The plates were incubated at 37 °C for 49 h and the His ± revertant colonies were counted manually and automatically by a colony counter (Colony analyzer CA-11D systems, System science Co.,Ltd.). The influence of metabolic activation was tested by adding 500 μL of 10% S9 mixture. All experiments were performed in duplicate. […] DMSO served as the negative control (100 μL/plate). The mutagenic index (MI, the average number of revertants per plate divided by the average number of revertants per plate from the negative control) was also calculated for each dose. A sample was considered positive when the MI was equal to or greater than 2 for at least one of the tested doses.

MLL4 [4] = target: MLL4 (Homo sapiens, UniProt Q9UMN6)
Sequence of MLL4 (Homo sapiens, UniProt Q9UMN6) (Q9UMN6 2490-2715): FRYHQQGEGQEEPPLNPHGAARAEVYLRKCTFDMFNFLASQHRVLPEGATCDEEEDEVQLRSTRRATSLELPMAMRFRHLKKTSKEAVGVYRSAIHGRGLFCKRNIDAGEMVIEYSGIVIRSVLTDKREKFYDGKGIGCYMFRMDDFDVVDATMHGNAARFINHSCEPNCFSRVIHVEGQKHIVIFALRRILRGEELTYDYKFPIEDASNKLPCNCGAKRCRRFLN
Sequence of MLL4 (Homo sapiens, UniProt Q9UMN6) (Q9UBL3 whole entry, further chain): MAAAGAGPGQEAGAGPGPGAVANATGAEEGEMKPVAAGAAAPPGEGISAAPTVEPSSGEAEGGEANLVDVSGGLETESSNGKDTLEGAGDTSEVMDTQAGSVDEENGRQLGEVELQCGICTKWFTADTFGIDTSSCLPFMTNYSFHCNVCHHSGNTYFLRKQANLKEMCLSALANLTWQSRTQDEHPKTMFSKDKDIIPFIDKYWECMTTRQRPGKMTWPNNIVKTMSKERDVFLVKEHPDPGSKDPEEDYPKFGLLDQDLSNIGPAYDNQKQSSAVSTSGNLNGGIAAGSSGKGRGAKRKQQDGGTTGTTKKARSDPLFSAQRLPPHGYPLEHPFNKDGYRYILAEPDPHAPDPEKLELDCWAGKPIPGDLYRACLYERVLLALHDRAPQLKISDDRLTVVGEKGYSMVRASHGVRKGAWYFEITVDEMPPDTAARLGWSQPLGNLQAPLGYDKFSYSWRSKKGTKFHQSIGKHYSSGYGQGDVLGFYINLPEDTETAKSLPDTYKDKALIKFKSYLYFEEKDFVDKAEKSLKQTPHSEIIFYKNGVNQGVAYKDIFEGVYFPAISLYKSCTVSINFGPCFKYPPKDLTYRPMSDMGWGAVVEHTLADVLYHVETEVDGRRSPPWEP
Sequence of MLL4 (Homo sapiens, UniProt Q9UMN6) (Q9C005 whole entry, further chain): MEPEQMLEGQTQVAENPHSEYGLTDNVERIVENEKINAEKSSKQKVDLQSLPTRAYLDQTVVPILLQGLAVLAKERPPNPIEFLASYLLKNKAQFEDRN
Sequence of MLL4 (Homo sapiens, UniProt Q9UMN6) (Q15291 whole entry, further chain): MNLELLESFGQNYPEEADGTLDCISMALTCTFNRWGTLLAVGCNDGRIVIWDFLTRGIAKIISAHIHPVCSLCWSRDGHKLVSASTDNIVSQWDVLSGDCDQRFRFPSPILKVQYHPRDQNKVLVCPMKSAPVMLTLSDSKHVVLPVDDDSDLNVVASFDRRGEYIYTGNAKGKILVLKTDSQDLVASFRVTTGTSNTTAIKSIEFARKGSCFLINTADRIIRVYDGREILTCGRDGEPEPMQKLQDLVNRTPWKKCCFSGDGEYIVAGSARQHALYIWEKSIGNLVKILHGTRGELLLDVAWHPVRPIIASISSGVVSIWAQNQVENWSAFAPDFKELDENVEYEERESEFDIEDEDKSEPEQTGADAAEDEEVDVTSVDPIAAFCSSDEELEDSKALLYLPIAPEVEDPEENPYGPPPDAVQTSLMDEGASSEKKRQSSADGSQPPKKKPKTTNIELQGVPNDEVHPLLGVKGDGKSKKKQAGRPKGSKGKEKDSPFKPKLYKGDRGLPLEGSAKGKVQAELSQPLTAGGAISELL

Sequence of MLL4 (Q9UMN6 2490-2715): as the sequence (Q9UMN6 2490-2715) above
Sequence of MLL4 (Q9UBL3 whole entry, further chain): as the sequence (Q9UBL3 whole entry, further chain) above
Sequence of MLL4 (Q9C005 whole entry, further chain): as the sequence (Q9C005 whole entry, further chain) above
Sequence of MLL4 (Q15291 whole entry, further chain): as the sequence (Q15291 whole entry, further chain) above
Sequence of PRMT7 (Q9NVM4 whole entry): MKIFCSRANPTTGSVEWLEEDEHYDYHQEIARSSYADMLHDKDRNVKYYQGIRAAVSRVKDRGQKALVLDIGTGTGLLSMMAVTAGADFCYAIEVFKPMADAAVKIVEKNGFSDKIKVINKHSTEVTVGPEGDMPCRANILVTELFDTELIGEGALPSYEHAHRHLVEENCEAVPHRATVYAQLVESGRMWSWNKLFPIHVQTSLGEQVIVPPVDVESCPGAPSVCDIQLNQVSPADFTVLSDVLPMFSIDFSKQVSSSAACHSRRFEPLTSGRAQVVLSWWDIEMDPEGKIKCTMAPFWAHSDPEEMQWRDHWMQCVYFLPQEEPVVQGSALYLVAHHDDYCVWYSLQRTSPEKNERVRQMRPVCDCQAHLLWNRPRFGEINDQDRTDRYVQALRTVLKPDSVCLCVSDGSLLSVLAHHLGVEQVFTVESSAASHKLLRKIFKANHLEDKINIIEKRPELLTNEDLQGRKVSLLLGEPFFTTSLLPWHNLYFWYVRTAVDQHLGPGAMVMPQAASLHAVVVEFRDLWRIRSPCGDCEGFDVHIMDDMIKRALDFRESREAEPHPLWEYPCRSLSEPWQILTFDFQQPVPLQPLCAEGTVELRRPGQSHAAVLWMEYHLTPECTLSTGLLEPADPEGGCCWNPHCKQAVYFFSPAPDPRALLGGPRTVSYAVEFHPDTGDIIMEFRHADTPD

Cc1c(C(=O)NC(CCC2CC2)C(=O)Nc2ccc(C#N)cc2)[nH]c2c1C(=O)CC(C)(C)C2 (centres unmarked) [RK-701]
IC50 (EZH1): > 100 µM | IC50 (MLL4 [1]): > 100 µM | IC50 (PRMT7): > 100 µM | occupancies of H3K9me2 throughout the β-globin gene locus [2]: reduced | IC50 (PRMT5/MEP50): > 100 µM | Number of reverants/plate ([3]; TA100, + S9, base pair substitution mutation, 4.88 μg/plate): 107 and 119 | Number of reverants/plate ([3]; TA100, + S9, base pair substitution mutation, 19.5 μg/plate): 117 and 120 | Number of reverants/plate ([3]; TA100, + S9, base pair substitution mutation, 78.1 μg/plate): 117 and 128 | Number of reverants/plate ([3]; TA100, + S9, base pair substitution mutation, 313 μg/plate): 97 and 127 | Number of reverants/plate ([3]; TA100, + S9, base pair substitution mutation, 1250* μg/plate): 98 and 121 | Number of reverants/plate ([3]; TA100, + S9, base pair substitution mutation, 2500* μg/plate): 117 and 90 | Number of reverants/plate ([3]; TA100, + S9, base pair substitution mutation, 5000* μg/plate): 111 and 110 | Number of revertants/plate ([3]; TA100, +S9, 4.88 μg/plate): 113 | Number of revertants/plate ([3]; TA100, +S9, 19.5 μg/plate): 119 | Number of revertants/plate ([3]; TA100, +S9, 78.1 μg/plate): 123 | Number of revertants/plate ([3]; TA100, +S9, 313 μg/plate): 112 | Number of revertants/plate ([3]; TA100, +S9, 1250 μg/plate, insoluble material): 110 | Number of revertants/plate ([3]; TA100, +S9, 2500 μg/plate, insoluble material): 104 | Number of revertants/plate ([3]; TA100, +S9, 5000 μg/plate, insoluble material): 111 | Number of reverants/plate ([3]; TA100, - S9, base pair substitution mutation, 4.88 μg/plate): 110 and 135 | Number of reverants/plate ([3]; TA100, - S9, base pair substitution mutation, 19.5 μg/plate): 102 and 108 | Number of reverants/plate ([3]; TA100, - S9, base pair substitution mutation, 78.1 μg/plate): 90 and 106 | Number of reverants/plate ([3]; TA100, - S9, base pair substitution mutation, 313 μg/plate): 125 and 110 | Number of reverants/plate ([3]; TA100, - S9, base pair substitution mutation, 1250* μg/plate): 99 and 94 | Number of reverants/plate ([3]; TA100, - S9, base pair substitution mutation, 2500* μg/plate): 98 and 108 | Number of reverants/plate ([3]; TA100, - S9, base pair substitution mutation, 5000* μg/plate): 93 and 98 | Number of revertants/plate ([3]; TA100, -S9, 4.88 μg/plate): 123 | Number of revertants/plate ([3]; TA100, -S9, 19.5 μg/plate): 105 | Number of revertants/plate ([3]; TA100, -S9, 78.1 μg/plate): 98 | Number of revertants/plate ([3]; TA100, -S9, 313 μg/plate): 118 | Number of revertants/plate ([3]; TA100, -S9, 1250 μg/plate, insoluble material): 97 | Number of revertants/plate ([3]; TA100, -S9, 2500 μg/plate, insoluble material): 103 | Number of revertants/plate ([3]; TA100, -S9, 5000 μg/plate, insoluble material): 96 | mutagenicity ([3]; TA100, regardless of metabolic activation): no mutagenicity

Nc1ncnc2c1ncn2[C@@H]1O[C@H](CSCC[C@H](N)C(=O)O)[C@@H](O)[C@H]1O [SAH, S-(5'-Adenosyl)-L-homocysteine, reference compound]
IC50 (MLL4 [4]): 1130 nM

Reference: PMC9837035 (Nature Communications, 2023)
